# According to publication PMC12820599, “Structural characterisation of nucleotide sugar short‐chain dehydrogenases/reductases from the thermophilic pseudomurein‐containing methanogen Methanothermobacter thermautotrophicus ΔH” (The Febs Journal, 2025):
# Experiments:
# Type in all cases: binding
# Mth375 [1] = target: T1, Mth375 (Methanothermobacter thermautotrophicus, UniProt O26475); experiment: X-ray crystal structure ([…] Å); settings: coenzyme site (Rossmann fold); no coenzyme added (co-purified); redox state not settled (NAD/NADH/NAD(H) printed); UDP bound
# T1 construct: gene MTH_375; recombinant hexahistidine-tagged (pET100D), E. coli BL21-Rosetta 2; 332 residues seen; dimer; Cys131 (and Cys13 in Mth375_NU) modified by beta-mercaptoethanol
# T1 sequence (O26475 entry or part of it): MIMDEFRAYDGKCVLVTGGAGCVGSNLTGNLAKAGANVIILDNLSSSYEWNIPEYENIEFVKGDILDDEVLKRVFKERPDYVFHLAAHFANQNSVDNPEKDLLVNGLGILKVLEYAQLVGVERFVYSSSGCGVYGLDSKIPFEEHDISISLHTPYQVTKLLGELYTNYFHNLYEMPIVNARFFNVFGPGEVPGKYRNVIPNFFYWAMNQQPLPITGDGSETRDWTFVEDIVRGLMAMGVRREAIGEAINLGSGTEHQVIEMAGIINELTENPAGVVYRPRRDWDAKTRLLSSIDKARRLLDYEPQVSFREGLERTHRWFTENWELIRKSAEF
# Mth373 [2] = target: T2, Mth373 (Methanothermobacter thermautotrophicus, UniProt O26473); experiment: X-ray crystal structure ([…] and […] Å); settings: 2.0 mM NADH added; coenzyme site of each monomer; printed as NADH, NAD(H) and NAD
# T2 construct: gene MTH_373; recombinant hexahistidine-tagged, E. coli LOBSTR BL21*; 311-residue monomer; dimer
# T2 sequence (O26473 entry or part of it): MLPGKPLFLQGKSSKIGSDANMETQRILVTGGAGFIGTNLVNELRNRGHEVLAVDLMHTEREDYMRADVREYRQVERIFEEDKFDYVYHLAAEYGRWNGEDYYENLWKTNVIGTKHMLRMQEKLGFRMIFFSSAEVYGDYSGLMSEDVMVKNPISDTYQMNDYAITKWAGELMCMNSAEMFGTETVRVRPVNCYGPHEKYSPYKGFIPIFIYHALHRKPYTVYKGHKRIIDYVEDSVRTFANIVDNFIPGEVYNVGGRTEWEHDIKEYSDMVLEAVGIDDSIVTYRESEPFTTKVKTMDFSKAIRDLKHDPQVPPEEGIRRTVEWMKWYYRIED
# Mth375 [3] = target: T1, Mth375; experiment: X-ray crystal structure ([…] and […] Å); settings: co-crystallised with 1.0 mM UDP; active site; NAD(H) (6PNL) or AMP (6PMH) also bound; 21 °C
# Mth373 [4] = target: T2, Mth373; experiment: X-ray crystal structure ([…] Å); settings: co-crystallised with 1.0 mM UDP and 2.0 mM NADH; active site of both monomers; pH 5.0; UDP also in one monomer of 9AR1
compound,measurement,setting,value
NC(=O)C1=CN([C@@H]2O[C@H](COP(=O)(O)OP(=O)(O)OC[C@H]3O[C@@H](n4cnc5c(N)ncnc54)[C@H](O)[C@@H]3O)[C@@H](O)[C@H]2O)C=CC1 [NADH],X-ray crystal structure (2.01 Å),Mth375 [1],Mth375_NU contained a single NADH molecule
same,X-ray crystal structure (1.96 and 2.00 Å),Mth373 [2],Both complexes have interpretable electron density for a molecule of NADH
O=c1ccn([C@@H]2O[C@H](COP(=O)(O)OP(=O)(O)O)[C@@H](O)[C@H]2O)c(=O)[nH]1 [UDP],X-ray crystal structure (2.01 and 2.30 Å),Mth375 [3],A single molecule of UDP was bound to each Mth375 complex
same,X-ray crystal structure (2.00 Å),Mth373 [4],A single molecule of UDP was bound to each active site of the Mth373_NU dimer
